The results in this text go back to patent publication US4221909A, “P-Acetamidobenzoic acid salts of 9-(hydroxyalkyl) purines” (Sloan-Kettering Institute for Cancer Research, priority 1978, dated 1980).

Each structure is given as a SMILES string.

Common to all, as to format: cell-based
For experiment [1], the system named is Influenza A USSR/90(H1 N1). The experiment can be described thus: Anti-Influenza Activity (Hemadsorption Assay), Influenza A USSR/90. Here is the method:
Upon infection of a monolayer of tissue culture cells by influenza virus, the cell surface is altered so that guinea pig erythrocytes can be adsorbed to the cell surface. The number of foci of adsorbed cells (hemadsorption foci forming units HAFFU) is a quantitative measure of infectivity. The method is as follows.
The monolayers were subcultured in the following manner: The medium was poured off, and the monolayer washed two times with approximately 50 ml per wash of calcium and magnesium free phosphate buffered saline (PBS), (GIBCO #419) at a pH of 7.2. One ml of trypsin-EDTA solution (GIBCO #530L) containing 0.5 g trypsin (1:250) and 2.0 g EDTA/liter of Modified Puck's Saline A was added at 37° C. to each flask and dispersed over the monolayer with gentle shaking. The flasks were then placed in an incubator at 37° C. for approximately 3-5 minutes depending on the time required to dislodge the cells. Occasional shaking was required. Ten ml of planting medium was added to each flask and the cells dispersed by aspirating and expelling the suspension from the pipette. The contents of a series of flasks were pooled and the cells in the suspension were diluted with planting medium to 7-8.5×10^4 cells/ml. The planting medium consisted of the following composition: Minimum Essential Medium Eagles (MEM) with Earle's salts and HEPES buffer (GIBCO #236) supplemented by adding the following substances as specified to 87 ml of MEM:
The following day the medium was removed and replaced with fresh planting medium. The monolayers were used for experimentation when they reached a condition in which they were almost confluent (approximately 3-4 days).
When the Linbro tray HeLa cell cultures were ready for experimentation (see cells), the medium was decanted and 1 ml of maintenance medium (MEM with FCS reduced to 3%) containing the compound being tested at a given concentration was added to 4 replicate cultures within a tray.
A series of different drug concentrations ranging from 2.3 to 150 μg/ml were used. Maintenance medium alone was used for control cultures. After the administration of drug and control medium, 0.1 ml of the diluted viral suspension was added to experimental groups and infected control cultures. Saline alone was added to non-infected control cultures. The Linbro trays were then incubated at 37° C. for 18 hours, after which media in all groups was aspirated. Each culture was washed once with PBS. The saline was aspirated and 0.5 ml of a 0.4% v/v guinea pig red blood cell suspension in PBS was added to each culture well. The cultures remained at room temperature for 30 minutes after which the medium was decanted and culture washed […] with PBS to remove all but the specifically bound red cells. After the third wash, maintenance medium was added to all cultures.
A Howard Micrometer eyepiece (C8385) was inserted within the ocular of a Nikon inverted phase contrast microscope. Each culture was scanned with a 4× low paper objective and direct counts of hemadsorbed red cells were counted using the eyepiece grid as a field marker. Partial or complete fields were counted per experimental group depending on the resulting number and density of hemadsorbed cells in the infected control cultures. Magnification of 60× or 150× were chosen to obtain the best conditions for enumerating the hemadsorbed cells. Field factors were calculated for counting hemadsorption at 60× and 150×. At 60× magnification, total field count was calculated using a multiplication factor of 55.5. At 150× magnification the multiplication factor was 273. The multiplication factors of 55.5 and 273 represent the total number of fields at 60× and 150× magnifications, respectively. The number of fields counted ranged from 3 to 5 per well with 3 to 4 wells per treatment group employed (see raw data tables in results section for number of fields examined). Means and standard errors were calculated and the data was evaluated using student's t-test analysis.

For experiment [2], the system named is human peripheral blood lymphocytes. Briefly: Mitogen Induced (PHA) Human Lymphocyte Proliferation.
A further experiment relates to Mouse spleen cells. Briefly: Mitogen Induced (Con A) Mouse Lymphocyte Proliferation. The source says: (§1) The following three assay procedures are used to evaluate the ability of the test substances to modulate the activity of several classes of cells in the immune system. In these systems it is possible to identify both immunopotentiating activity (evidence by an enhancement of the parameter examined) as well as immunosuppressant activity (evidenced by an inhibition of the parameter examined).
1. Mitogen--Induced Mouse Spleen Cell Assay--Mouse spleen cells contain a population of both B and T lymphocytes which can be stimulated by a number of foreign substances (e.g., plant mitogens such as Con A) to proliferate. This enhanced proliferation is an indication of enhanced cell mediated immunity. The method below describes the system used to evaluate test substances as immunopotentiators.
Concanavalin A (Calbiochem, La Jolla, Calif.), Lot #210073, lyophilized in NaCl, was prepared first as a 1% solution and diluted as a 2× concentration for each dilution (0.5, 1.0, 2.5 μg/ml).
Six to eight week old male Balb/c and C3 H inbred mice were obtained from the following sources: Flow Research Animals, Inc., Dublin, Va.; Charles River Breeding Laboratories, Wilmington, Mass.; Laboratory Supply Company, Indianapolis, Ind.; and Lionel Strong Foundation, San Diego, Calif.
Three to five mice were sacrificed by cervical dislocation and the spleens aseptically removed. Pooled spleens were minced and teased with sterile forceps; then strained through a double layer of nylon mesh. The cell suspension was washed once with 15 ml of RPMI 1640 supplemented with 5% fetal calf serum and antibiotics. Cells were cultured at a concentration of 10^6 cells/0.1 ml/well in micro-plates. Cultures were incubated in the presence or absence of mitogen in a humidified atmosphere containing 5% CO2 for 48 hours. The test compound was added to cultures at various concentrations concommitant with mitogen.
Proliferation was assayed by the degree of incorporation of 1.0 μCi of [^3 H] thymidine over an 18 hour incubation period. Cultures were harvested by a MASH unit (Otto Hiller Co., Madison, Wisconsin) and thymidine incorporation was assayed by liquid scintillation spectrometry. Cultures were performed in triplicate and data are expressed as means plus or minus the strandard error of the experimental means. Drug stimulation indices over control values were also calculated and portrayed graphically.

Another experiment deals with influenza virus. Briefly: Anti-influenza activity (summary).
For experiment [3], the system named is guinea pig peritoneal macrophages. Briefly: Lymphokine Induced (MMF) Guinea Pig Macrophage Proliferation.
From the text: as §1
3. The macrophage represents a subpopulation of white blood cells which is an important component of the immune system in control of both cellular and humoral immunity. The assay system described below evaluates the substances studied as potentiators of macrophage function.
Phytohemagglutinin(PHA) (HA-17) was purchased from Burroughs Wellcome. A preparation containing Macrophage Mitogen Factor (MMF) and Macrophage Activating Factor (MAF) was prepared from antigen-stimulated immune lymph node lymphocytes (guinea pig) as previously described by Hadden et al, Nature 257, 483-485 (1975). […] The active fraction was employed in both the proliferation and activation assays.
Ficoll-hypaque purified human peripheral blood lymphocytes were prepared and PHA-induced lymphocyte proliferation was assayed by the incorporation of tritiated thymidine as described in Hadden et al, Cell. Immunol. 20, 98-103 (1975). Each compound was analyzed in the presence of suboptimal, optimal and supraoptimal concentrations of PHA (0.001, 0.01, 0.1 units/ml respectively). Paraffin oil-induced guinea pig peritoneal macrophages were prepared and incubated as monolayer culture (>98% pure macrophages). Lymphokine (MMF)-induced proliferation was assayed by the incorporation of triturated thymidine at 3 and 5 days of culture as described, Hadden et al, Nature 257, 483-485 (1975). Lymphokine (MAF)-induced macrophage activation to kill Listeria monocytogenes following 5 days of culture in the presence or absence of MAF was performed during a 6 hour period as described in Hadden and England, Immunopharmacology, pages 87-100 (Plenum Press, 1977). Phagocytosis was quantitated during a 20-minute exposure to Listeria monocytogenes by counting the number of macrophages containing bacteria and the number of bacteria per phagocytic cell on gram stained monolayers in Labtek chambers. Intracellular killing of bacteria was evaluated by counting the number of cells containing bacteria and the number of bacteria/cell 6 hours after the initial 20 minute exposure. Parallel experiments in which macrophages were lysed and intracellular bacteria were cultured confirm the validity of bacterial activity determined by this manner in this sytem. The drugs were employed in each of the three systems over serial log concentration range in triplicate in the presence and absence of mitogen or lymphokine. Each type of experiment was performed at least three times. Previous experiments indicate a parallelism of response to pharmacologic modulation in the proliferation and activation assays.

As a reminder, the inhibition is the change of the read-out against control, counted positive when it falls. Consider `CC(CO)n1cnc2c(Cl)ncnc21` (stereo not shown) [NPT 15423, 9-(1-HYDROXY-2-PROPANE)-6-CHLOROPURINE], for which, in experiment [1] (Influenza A virus, Conc. 10-100 μg/ml, read-out: % Inhibition of Hemadsorption Foci), the inhibition is 13%.

In the case of `O=c1[nH]cnc2c1ncn2CCO` [NPT 15425, 9-HYDROXYETHYL HYPOXANTHINE], the “Maximum Percent Change, Mitogen Induced (PHA) Human Lymph. Prolif.” value in experiment [2] (1.0-10) was determined as 0%; in experiment [2] (10-100), 0%; in experiment [2] (.01-1.0), 100%. Also, the “Maximum Percent Change, Mitogen Induced (Con A) Mouse Lymph. Prolif.” value in the experiment on Mouse spleen cells (1.0-10) stood at 0%; in the experiment on Mouse spleen cells (.01-1.0), 11%.

For the compound `CC(O)Cn1cnc2c(N)ncnc21` (stereo not shown) [NPT 15431, 9-(2-HYDROXY-1-PROPYL)ADENINE], the “Maximum Percent Change, Mitogen Induced (PHA) Human Lymph. Prolif.” value in experiment [2] (1.0-10), in experiment [2] (10-100) and in experiment [2] (.01-1.0) was 0% each time. Further, the figures for the “Maximum Percent Change, Mitogen Induced (Con A) Mouse Lymph. Prolif.” value with Mouse spleen cells (1.0-10), in the experiment on Mouse spleen cells (10-100) and in the experiment on Mouse spleen cells (.01-1.0) were -27%, -47% and -15%, respectively. Also, the “% Inhibition of Hemadsorption Foci” value was found to be 22% in experiment [1] (Conc. 10-100 μg/ml, listed as 15431) and 0% in experiment [1] (Conc. >100 μg/ml, listed as 15431).

`CC(O)Cn1cnc2c(N)ncnc21` (stereo not shown) [NPT 15432]: the “DIP.PAcBA potentiation of Anti-Influenza activity” value in the experiment with influenza virus was “Yes”. Also, the “% Inhibition of Hemadsorption Foci” value in experiment [1] (Conc. 10-100 μg/ml, listed as 15432) was 48%; in experiment [1] (Conc. >100 μg/ml, listed as 15432), 62%.

For `CC(CO)n1cnc2c(N)ncnc21` (stereo not shown) [NPT 15433, 9-(1-HYDROXY-2-PROPYL)ADENINE], the “Maximum Percent Change, Mitogen Induced (PHA) Human Lymph. Prolif.” value in experiment [2] (1.0-10) is 0%; in experiment [2] (10-100) it was -50%; in experiment [2] (.01-1.0), 53%. Further, the “Maximum Percent Change, Mitogen Induced (Con A) Mouse Lymph. Prolif.” value with Mouse spleen cells (1.0-10) is -23%; with Mouse spleen cells (10-100) it was -65%; with Mouse spleen cells (.01-1.0) it was “+15%”. Moreover, the “% Inhibition of Hemadsorption Foci” value in experiment [1] (Conc. >100 μg/ml, listed as 15433) is 0%.

Consider `CC(CO)n1cnc2c(N)ncnc21` (stereo not shown) [NPT 15434], for which the “DIP.PAcBA potentiation of Anti-Influenza activity” value in the experiment with influenza virus is given as “Yes”. Also, the “% Inhibition of Hemadsorption Foci” value was 41% in experiment [1] (Conc. 10-100 μg/ml) and 62% in experiment [1] (Conc. >100 μg/ml, listed as 15434).

With `CC(CO)n1cnc2c(=O)[nH]cnc21` (stereo not shown) [NPT 15443, 9-(1-HYDROXY-2-PROPYL)HYPOXANTHINE], the “Maximum Percent Change, Mitogen Induced (PHA) Human Lymph. Prolif.” value in experiment [2] (1.0-10) was “+13%”; in experiment [2] (10-100), 0%; in experiment [2] (.01-1.0) it was 0%. Besides, the “Maximum Percent Change, Mitogen Induced (Con A) Mouse Lymph. Prolif.” value is reported as “+27%” with Mouse spleen cells (1.0-10), “+27%” in the experiment on Mouse spleen cells (10-100) and “+17%” in the experiment with Mouse spleen cells (.01-1.0). The figures for the “Maximum Percent Change, Lymphokine Induced (MMF) Guinea Pig Mac. Prolif.” value in experiment [3] (1.0-10) and in experiment [3] (.01-1.0) were 0% and “+20%”, respectively. The “% Inhibition of Hemadsorption Foci” value in experiment [1] (Conc. 10-100 μg/ml, listed as 15443) was determined as 0%; in experiment [1] (Conc. >100 μg/ml, listed as 15443), 0%.

Take `CC(O)Cn1cnc2c(=O)[nH]cnc21` (stereo not shown) [NPT 15446, 9-(2-HYDROXY-1-PROPYL)HYDROXANTHINE]: the “Maximum Percent Change, Mitogen Induced (PHA) Human Lymph. Prolif.” value in experiment [2] (1.0-10), in experiment [2] (10-100) and in experiment [2] (.01-1.0) was 0% each time. Further, the “Maximum Percent Change, Mitogen Induced (Con A) Mouse Lymph. Prolif.” value is given as 12% in the experiment on Mouse spleen cells (1.0-10), 0% in the experiment with Mouse spleen cells (10-100) and 6% in the experiment on Mouse spleen cells (.01-1.0). The “Maximum Percent Change, Lymphokine Induced (MMF) Guinea Pig Mac. Prolif.” value in experiment [3] (1.0-10), in experiment [3] (10-100) and in experiment [3] (.01-1.0) was 0% each time. Further, the “% Inhibition of Hemadsorption Foci” value in experiment [1] (Conc. 10-100 μg/ml, listed as 15446) is listed as 0%; in experiment [1] (Conc. <10 μg/ml, listed as 15446) it was 2%; in experiment [1] (Conc. >100 μg/ml, listed as 15446), 0%.

`CC(=O)Nc1ccc(C(=O)O)cc1.CC(O)CN(C)C` [compound 15110, dimethylamino-2-propanol-p-acetamido benzoate, reference compound]: the “% Inhibition of Hemadsorption Foci” value in experiment [1] (Conc. 10-100 μg/ml) was 0%; in experiment [1] (Conc. <10 μg/ml) it was 0%; in experiment [1] (Conc. >100 μg/ml), 20%.
